According to patent US10064867B2, “Hsp90 inhibitors” (Sloan-Kettering Institute for Cancer Research, priority 2011, dated 2018):
Like-named read-outs stand apart in the source and are kept apart here.

Columns and labels:
[1] = target: hERG (Homo sapiens, UniProt Q12809); assay: hERG binding
Text: In interpreting these test results, it will be appreciated that binding to Hsp90 for activity in the treatment of cancer or neurodegenerative disorders is desirable. In contrast, it is generally undesirable to have binding to hERG since binding to hERG can result in undesirable cardiac side effects. Therefore, having a low value for binding to Hsp90 and a high value for binding to hERG is desirable, bearing in mind that the units for the two measurement are different.

[2] = target: Hsp90; assay: Hsp90 Binding Assay (fluorescence polarization, cy3B-GM displacement, SKBr3 lysate); set-up: species or system human; details: read-out: SKBr3 Binding Affinity
[3] = human cancer cell lysate (SKBr3), cy3B-GM displacement, 4° C., 24 h

Chain of hERG (Q12809 whole entry): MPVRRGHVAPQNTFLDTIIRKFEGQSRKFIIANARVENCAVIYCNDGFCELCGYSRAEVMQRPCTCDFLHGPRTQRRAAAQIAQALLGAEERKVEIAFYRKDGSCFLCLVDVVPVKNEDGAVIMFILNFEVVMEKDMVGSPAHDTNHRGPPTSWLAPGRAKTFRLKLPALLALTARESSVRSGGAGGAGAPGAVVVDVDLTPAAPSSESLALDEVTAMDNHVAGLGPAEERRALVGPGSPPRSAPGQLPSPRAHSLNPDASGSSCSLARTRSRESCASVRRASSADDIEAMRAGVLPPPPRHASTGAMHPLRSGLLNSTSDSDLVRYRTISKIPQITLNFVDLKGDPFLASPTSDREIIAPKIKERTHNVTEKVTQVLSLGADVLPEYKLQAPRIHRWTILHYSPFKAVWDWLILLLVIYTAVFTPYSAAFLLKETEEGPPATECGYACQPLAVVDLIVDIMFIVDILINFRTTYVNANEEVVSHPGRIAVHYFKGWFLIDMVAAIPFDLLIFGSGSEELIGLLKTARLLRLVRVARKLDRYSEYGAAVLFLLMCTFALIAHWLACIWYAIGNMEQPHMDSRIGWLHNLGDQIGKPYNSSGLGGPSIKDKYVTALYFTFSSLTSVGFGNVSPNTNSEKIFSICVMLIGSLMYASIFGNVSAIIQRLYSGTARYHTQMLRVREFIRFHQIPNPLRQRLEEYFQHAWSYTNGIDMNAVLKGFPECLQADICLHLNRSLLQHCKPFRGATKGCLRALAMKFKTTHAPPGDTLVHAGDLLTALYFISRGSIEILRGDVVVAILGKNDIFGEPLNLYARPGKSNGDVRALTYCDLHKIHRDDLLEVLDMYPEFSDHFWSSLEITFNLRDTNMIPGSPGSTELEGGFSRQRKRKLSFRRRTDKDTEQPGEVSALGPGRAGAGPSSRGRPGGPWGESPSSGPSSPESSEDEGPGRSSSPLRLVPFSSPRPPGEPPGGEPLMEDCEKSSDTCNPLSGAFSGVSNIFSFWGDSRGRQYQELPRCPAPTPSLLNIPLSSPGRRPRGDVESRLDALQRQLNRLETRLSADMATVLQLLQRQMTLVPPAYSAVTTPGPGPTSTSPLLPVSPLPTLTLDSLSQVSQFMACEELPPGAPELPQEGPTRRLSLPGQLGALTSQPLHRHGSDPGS

SMILES | hERG binding [1] [µM] | IC50 [2, 3] [nM] | IC50 [2] [nM]
CC(C)NCCCn1c(Sc2cc3c(cc2N(C)C)OCO3)nc2c(N)ncnc21 [DZ4-134, 8-(6-(Dimethylamino)benzo[d][1,3]dioxol-5-ylthio)-9-(3-(isopropylamine)propyl)-9H-purin-6-amine] | 11.0 | 55.3 | 
CN(C)c1cc2c(cc1Sc1nc3c(N)ncnc3n1CCCNC(C)(C)C)OCO2 [DZ4-135, 9-(3-(tert-Butylamino)propyl)-8-(6-(dimethylamino)benzo[d][1,3]dioxol-5-ylthio)-9H-purin-6-amine] | 14.0 | 45.4 | 
CC(C)NCCCn1c(Sc2cc3c(cc2I)OCO3)nc2c(N)ncnc21 [PU-H71, reference compound] | 1 |  | […]
